Source: PubChem BioAssay (NCI)
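Interpolation was linear, between the two tested concentrations surrounding the appropriate level; five concentrations were tested over 48 hours in 96-well plates. At the TGI there is no net growth.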

Key:
Test in all cases: DTP human tumour cell line panel, 48 h
SNB-75 CNS = tested on: SNB-75 CNS
MDA-MB-435 = tested on: MDA-MB-435
UACC-62 melanoma = tested on: UACC-62 melanoma
KM12 colon = tested on: KM12 colon
HT29 colon = tested on: HT29 colon
SK-OV-3 ovarian = tested on: SK-OV-3 ovarian
OVCAR-8 ovarian = tested on: OVCAR-8 ovarian
NCI-H460 lung = tested on: NCI-H460 lung
K-562 leukemia = tested on: K-562 leukemia
ACHN renal = tested on: ACHN renal
UACC-257 melanoma = tested on: UACC-257 melanoma
HS 578T breast = tested on: HS 578T breast
COLO 205 colon = tested on: COLO 205 colon
HCC-2998 colon = tested on: HCC-2998 colon
CAKI-1 renal = tested on: CAKI-1 renal
RPMI-8226 leukemia = tested on: RPMI-8226 leukemia
SF-295 CNS = tested on: SF-295 CNS
HOP-62 NSCLC = tested on: HOP-62 NSCLC
OVCAR-4 ovarian = tested on: OVCAR-4 ovarian
MDA-MB-231 breast = tested on: MDA-MB-231 breast
NCI-H226 lung = tested on: NCI-H226 lung
PC-3 prostate = tested on: PC-3 prostate
SN12C renal = tested on: SN12C renal
U251 CNS = tested on: U251 CNS
SK-MEL-28 melanoma = tested on: SK-MEL-28 melanoma
NCI-H522 lung = tested on: NCI-H522 lung
MOLT-4 leukemia = tested on: MOLT-4 leukemia
UO-31 renal = tested on: UO-31 renal
SF-268 CNS = tested on: SF-268 CNS
EKVX NSCLC = tested on: EKVX NSCLC
SK-MEL-5 melanoma = tested on: SK-MEL-5 melanoma
MCF7 breast = tested on: MCF7 breast
NCI-H23 lung = tested on: NCI-H23 lung
TK-10 renal = tested on: TK-10 renal
OVCAR-3 ovarian = tested on: OVCAR-3 ovarian
MALME-3M melanoma = tested on: MALME-3M melanoma
HOP-92 NSCLC = tested on: HOP-92 NSCLC
SR leukemia = tested on: SR leukemia
CCRF-CEM leukemia = tested on: CCRF-CEM leukemia
SK-MEL-2 melanoma = tested on: SK-MEL-2 melanoma
M14 melanoma = tested on: M14 melanoma
T-47D breast = tested on: T-47D breast
SW-620 colon = tested on: SW-620 colon
A498 renal = tested on: A498 renal
SNB-19 CNS = tested on: SNB-19 CNS
IGROV1 ovarian = tested on: IGROV1 ovarian
HCT-116 colon = tested on: HCT-116 colon
BT-549 breast = tested on: BT-549 breast
MDA-N = tested on: MDA-N
NCI/ADR-RES ovarian = tested on: NCI/ADR-RES ovarian
A549 NSCLC = tested on: A549 NSCLC
SF-539 CNS = tested on: SF-539 CNS
DU-145 prostate = tested on: DU-145 prostate
LOX IMVI melanoma = tested on: LOX IMVI melanoma
HCT-15 colon = tested on: HCT-15 colon
RXF 393 renal = tested on: RXF 393 renal
786-0 renal = tested on: 786-0 renal
OVCAR-5 ovarian = tested on: OVCAR-5 ovarian
HL-60(TB) leukemia = tested on: HL-60(TB) leukemia
M19-MEL melanoma = tested on: M19-MEL melanoma
DMS 273 small cell lung = tested on: DMS 273 small cell lung
LXFL 529 NSCLC = tested on: LXFL 529 NSCLC
DMS 114 small cell lung = tested on: DMS 114 small cell lung
DLD-1 colon = tested on: DLD-1 colon

Measured: TGI

Fc1cc(C2=C[C@H](c3ccc4c(c3)OCO4)NC(=S)N2)c(Cl)cc1Cl
90.8 µM: SN12C renal
96.4 µM: TK-10 renal
79 µM: A498 renal
62.7 µM: SK-MEL-2 melanoma
95.4 µM: MALME-3M melanoma
25.9 µM: SK-MEL-5 melanoma
50.3 µM: COLO 205 colon
85.8 µM: PC-3 prostate
91.1 µM: SNB-75 CNS
83.6 µM: UACC-257 melanoma
75.4 µM: HCC-2998 colon
0.23 µM: HL-60(TB) leukemia
not listed: M19-MEL melanoma | DMS 273 small cell lung | LXFL 529 NSCLC | DMS 114 small cell lung | DLD-1 colon
> 100 µM: all other assays above

CCOC(=O)[C@H](Cc1ccccc1)NC(=O)c1nc[nH]c1[N+](=O)[O-]
not listed: MDA-MB-435 | HS 578T breast | MDA-MB-231 breast | PC-3 prostate | MCF7 breast | HOP-92 NSCLC | T-47D breast | BT-549 breast | MDA-N | NCI/ADR-RES ovarian | DU-145 prostate | RXF 393 renal | OVCAR-5 ovarian
> 100 µM: all other assays above

O=C1C(=O)c2ccccc2C=C1[N+](=O)[O-]
76.4 µM: NCI/ADR-RES ovarian
31.8 µM: MDA-MB-435
86.1 µM: CCRF-CEM leukemia
69.9 µM: HCT-116 colon
85.2 µM: OVCAR-3 ovarian
39.2 µM: MDA-N
66.5 µM: MDA-MB-231 breast
58.9 µM: UACC-257 melanoma
65.4 µM: MOLT-4 leukemia
54.2 µM: HL-60(TB) leukemia
56.8 µM: EKVX NSCLC
80.1 µM: UACC-62 melanoma
46.4 µM: SK-MEL-5 melanoma
78.9 µM: MCF7 breast | RXF 393 renal
99.5 µM: SK-MEL-2 melanoma
not listed: MALME-3M melanoma | M19-MEL melanoma | DMS 273 small cell lung | LXFL 529 NSCLC | DMS 114 small cell lung | DLD-1 colon
> 100 µM: all other assays above
